Laboratory results from patent US20080031950A1, “Novel anelgesic combination” (NECTID INC., priority 2007, published 2008).
Where a name gives a salt, the structure may show the parent alone.

Tested on: patients suffering from Chronic non-cancer pain (CNCP)
Assay: Controlled human clinical trial, pain scored by visual analogue scale (VAS)
Type: in vivo
Conditions: mean ± SD, N = 10
Procedure: A typical study determined the efficacy of tramadol and […] as monotherapy and a combination of naproxen and a slow release tramadol for the treatment of pain and pain related conditions
• Tramadol hydrochloride: Generic Tramadol Hydrochloride tablets 50 mg, • Naproxen: Generic Neproxen tablets 250 mg • Slow Release Tramadol Hydrochloride: a) Example 1, b) Ultram ER 100 mg
• Treatment Drugs per day per patient • 1. Treatment A; Tramadol hydrochloride 100 mg • 2. Treatment B: Naproxen 250 mg • 3. Treatment C: Example 1 • 4. Treatment D: Ultram ER 100 mg+Naproxen 250 mg • 5. Treatment E: Example 2
The administered dosage comprised either tramadol hydrochloride (100 mg) or naproxen 250 mg or a combination of naproxen (250 mg) and slow release tramadol hydrochloride (100 mg) selected from Treatments D or a combination of naproxen 250 mg and a slow release tramadol 100 mg (Treatment C) was administered once a day to the patients in a long-term clinical trial.
40 patients were used in a clinical trial were suffering from Chronic non-cancer pain (CNCP), defined as pain for longer than 6 months, including neuropathic pain, osteoarthritis, rheumatoid arthritis, fibromyalgia, and back and musculoskeletal pain were included in the clinical trial. No effort was made to segregate the patients based on the type of pain nor did we evaluate the extent of pain relief on the basis of pain type.
Those patients with migraines, dental pain, abdominal pains (from chronic pancreatitis, kidney stones, etc.) and ischemic pain from vascular disease were excluded because they are usually not classified as CNCP. Patients with history of addiction (alcohol or drugs) were excluded from the trials
Randomization was performed with computer-generated random numbers in blocks of 10. Randomization codes of the monotherapy or combination therapy treatments were placed in sequentially numbered, opaque, sealed envelopes in the biopsy center.
Pain was assessed using a visual analogue scale (VAS) graded from 0-100 mm. Pain scoring was performed every three hours after drug administration for a total of 48 hours.
The patients were taught with a standard method by the physician how to use a VAS scoring from 0 to 100 mm to grade the intensity of pain experienced during the treatment. On that scale, the left endpoint, 0, was defined as no pain and the right endpoint 100, as the worst pain the patient could imagine. There were no further marks on the line. The intensity of pain was indicated by the distance in millimeters from the left end. Patients were asked to grade the pain intensity immediately after the administration of drugs and every three hour after for 24 hours by drawing a vertical line over each VAS line. The doctors who prescribed the medicines obtained all the VAS forms for that specific patient.
Data are expressed as means±SD. Differences in VAS were analyzed with use of the unpaired Student t test and differences in pain score reductions between the two groups were analyzed with use of the Mann-Whitney U test for the median difference. Similar statistical tests were used for between group comparisons of other outcome variables as appropriate. A two tailed P value of less than. […] SAS software was used for the statistical analysis.
We considered that a clinically significant benefit of using […] and slow release tramadol would be a reduction in the pain score (VAS) of at least 15% compared to the monotherapy with either tramadol hydrochloride or naproxen or placebo. Alternatively, the dose reduction of at least 15% of either NSAID or tramadol when used as combination over the monotherapy as significant benefit

[1] = VAS time 0 hours, scale 0-100 mm

Row | Compound | Pain scored by VAS [1] | Pain scored by VAS (VAS time 3 hours) | Pain scored by VAS (VAS time 6 hours) | Pain scored by VAS (VAS time 9 hours) | Pain scored by VAS (VAS time 12 hours) | Pain scored by VAS (VAS time 15 hours) | Pain scored by VAS (VAS time 18 hours) | Pain scored by VAS (VAS time 21 hours) | Pain scored by VAS (VAS time 24 hours)
1 | COc1cccc([C@@]2(O)CCCC[C@@H]2CN(C)C)c1 (racemic) [Treatment A, (±) cis-2-[(dimethylamino)methyl]-1-(3-methoxyphenyl)cyclo-hexanol hydrochloride] | 32.4 ± 21.2 mm | 23.1 ± 20.1 mm | 18.8 ± 20.6 mm | 14.9 ± 17.2 mm | 13.1 ± 21.2 mm | 13.9 ± 19.2 mm | 15.4 ± 21.3 mm | 14.5 ± 19.2 mm | 13.9 ± 19.2 mm
2 | COc1ccc2cc([C@H](C)C(=O)O)ccc2c1 [Treatment B, (+)-(S)-2-(6-methoxynaphthalen-2-yl)propanoic acid] | 33.9 ± 19.1 mm | 18.5 ± 19.1 mm | 13.9 ± 21.1 mm | 13.8 ± 20.3 mm | 14.6 ± 18.6 mm | 17.1 ± 21.5 mm | 18.9 ± 19.7 mm | 20.1 ± 18.3 mm | 24.8 ± 20.9 mm
